Data as given in BindingDB's records for patent US20250313563 (The Broad Institute, 2025).
“And” between values parts separate entries of the source, which are not always exact repeats. Equal values may be shown once.

Biological target: Glycogen synthase kinase-3 alpha (Homo sapiens, UniProt P49840)
Assay: TR-FRET Assay
Experimental: The assay was performed in a white, 384 well, low volume, flat bottom plate (Grenier). […] The kinase activity was quenched with 2 μL of 250 mM EDTA. A 10 μL volume of 40 nM Strepavidin-d2, 2 nM Tb2+-pSer641 antibody in TR-FRET Detection Buffer (Invitrogen) was then added.

Sequence of Glycogen synthase kinase-3 alpha (P49840 whole entry): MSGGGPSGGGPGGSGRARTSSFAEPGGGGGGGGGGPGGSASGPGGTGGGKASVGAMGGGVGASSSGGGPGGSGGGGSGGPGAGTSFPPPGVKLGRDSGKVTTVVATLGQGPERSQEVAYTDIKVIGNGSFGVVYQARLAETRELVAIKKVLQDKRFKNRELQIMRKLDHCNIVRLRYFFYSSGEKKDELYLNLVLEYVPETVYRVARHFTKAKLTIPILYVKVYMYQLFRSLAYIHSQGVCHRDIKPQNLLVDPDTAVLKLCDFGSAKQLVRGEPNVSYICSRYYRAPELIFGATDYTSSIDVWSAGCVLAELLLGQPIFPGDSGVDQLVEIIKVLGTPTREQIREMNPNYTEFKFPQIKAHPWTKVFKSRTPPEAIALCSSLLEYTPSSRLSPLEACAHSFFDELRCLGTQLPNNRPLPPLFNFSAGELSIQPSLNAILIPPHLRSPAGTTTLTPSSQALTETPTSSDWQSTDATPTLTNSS

Row | IC50 | Structure (SMILES)
1 | 1 to 5 µM | CC[C@@]1(c2cccc(N(C)c3ncccn3)c2)C2=C(N=NC2)NC2=C1C(=O)C(C)(C)C2 [US20250313563, Compound 952205]
2 | 0.1 to 1 µM | CC[C@@]1(c2cccc(N(C)c3cccnc3)c2)C2=CN=NC2NC2=C1C(=O)CC(C)(C)C2 (some centres undefined) [US20250313563, Compound 874299]
3 | < 0.1 µM | CC[C@@]1(c2cccc(-c3ccncc3C(F)(F)F)c2)C2=CN=NC2NC2=C1C(=O)CC(C)(C)C2 (some centres undefined) [US20250313563, Compound 943913]
4 | 1 to 5 µM | CC[C@@]1(c2cccc(S(=O)(=O)CC3CC3)c2)C2=CN=NC2NC2=C1C(=O)CC(C)(C)C2 (some centres undefined) [US20250313563, Compound 917151]
5 | 1 to 5 µM | CC[C@@]1(c2cccc(Nc3ncccn3)c2)C2=CN=NC2NC2=C1C(=O)CC(C)(C)C2 (some centres undefined) [US20250313563, Compound 945958]
6 | 0.1 to 1 µM | CC[C@]1(c2cccc(-c3ccnn3C)c2)C2=CN=NC2NC2=C1C(=O)NC1(CCC1)C2 (some centres undefined) [US20250313563, Compound 948522]
7 | 0.1 to 1 µM | CC[C@@]1(c2cccc(C(F)F)c2)C2=CN=NC2NC2=C1C(=O)CC(C)(C)C2 (some centres undefined) [US20250313563, Compound 826716]
8 | 3.01 µM and 17.5 µM | CC(=O)N1CC2(C1)C1=C(CC(C)(C)CC1=O)NC1N=NC(CC(C)(C)C)=C12 (centres undefined) [US20250313563, Compound 90991]
9 | 1 to 5 µM | CC[C@@]1(c2cccc(C(F)(F)F)c2)C2=CN=NC2NC2=C1C(=O)N[C@H](c1ccccc1)C2 (some centres undefined) [US20250313563, Compound 945363]
10 | 1 to 5 µM | CC[C@]1(c2cccc(-c3ccnc(C)c3)c2)C2=CN=NC2NC2=C1C(=O)NC1(CCOCC1)C2 (some centres undefined) [US20250313563, Compound 948524]
11 | 1 to 5 µM | CC[C@]1(c2cccc(-c3cnn(C4CC4(F)F)c3)c2)C2=CN=NC2NC2=C1C(=O)NC(C)(C)C2 (some centres undefined) [US20250313563, Compound 949393]
12 | 1 to 5 µM | CC[C@@]1(c2cccc(-c3ccncc3)c2)C2=CN=NC2NC2=C1C(=O)C[C@@H](C)C2 (some centres undefined) [US20250313563, Compound 874315]
13 | 0.1 to 1 µM | CC[C@]1(c2cccc(Oc3ncccn3)c2)C2=CN=NC2NC2=C1C(=O)CC(C)(C)C2 (some centres undefined) [US20250313563, Compound 947818]
14 | 0.1 to 1 µM | CC(C)(C)CC1N=NC2=C1[C@](C)(c1cccc(S(C)(=O)=O)c1)C1=C(CC(C)(C)CC1=O)N2 (some centres undefined) [US20250313563, Compound 114687]
15 | 0.1 to 1 µM | CC[C@]1(c2cccc(-c3ccncc3C)c2)C2=CN=NC2NC2=C1C(=O)NC1(CCCC1)C2 (some centres undefined) [US20250313563, Compound 948021]
16 | 1 to 5 µM | CC[C@@]1(c2cccc(C3CCC3)c2)C2=CN=NC2NC2=C1C(=O)CC(C)(C)C2 (some centres undefined) [US20250313563, Compound 949514]
17 | 0.1 to 1 µM | CC[C@]1(c2cccc(-c3ccnn3C)c2)C2=CN=NC2NC2=C1C(=O)N[C@]1(CCOC1)C2 (some centres undefined) [US20250313563, Compound 948014]
18 | 1 to 5 µM | CC[C@@]1(c2cccc(-c3ccnc(C)c3)c2)C2=CN=NC2NC2=C1C(=O)CC(C)(C)[C@@H]2F (some centres undefined) [US20250313563, Compound 946102]
19 | 0.1 to 1 µM | CC[C@@]1(c2cccc(N(C)c3ccncc3)c2)C2=CN=NC2NC2=C1C(=O)CC(C)(C)C2 (some centres undefined) [US20250313563, Compound 874261]
20 | 0.1 to 1 µM | CC[C@@]1(c2cccc(C(F)(F)F)c2)C2=CN=NC2NC2=C1C(=O)N(c1cncnc1)CC2 (some centres undefined) [US20250313563, Compound 948380]
21 | 0.1 to 1 µM | CC[C@@]1(c2cccc([C@H]3CCOC(C)(C)C3)c2)C2=CN=NC2NC2=C1C(=O)CC(C)(C)C2 (some centres undefined) [US20250313563, Compound 912090]
22 | 0.1 to 1 µM | CC[C@@]1(c2cccc(N(C)c3cccnn3)c2)C2=CN=NC2NC2=C1C(=O)CC(C)(C)C2 (some centres undefined) [US20250313563, Compound 911976]
23 | 1 to 5 µM | CCc1cccc([C@]2(CC)C3=CN=NC3NC3=C2C(=O)CC(C)(C)C3)c1 (some centres undefined) [US20250313563, Compound 949391]
24 | 0.1 to 1 µM | CC[C@@]1(c2cccc(-c3ccnn3C)c2)C2=CN=NC2NC2=C1C(=O)CC(C)(C)[C@@H]2F (some centres undefined) [US20250313563, Compound 957509]
